Source: ChEMBL document CHEMBL4303101, “Identification of inhibitors of SARS-CoV-2 in-vitro cellular toxicity in human (Caco-2) cells using a large scale drug repurposing collection” (2020)

Tests used:
SARS-CoV-2 [1] = conditions: Homo sapiens; Caco-2; 10 uM
in vitro [2] = conditions: human
in vitro [3] = conditions: human, Caco-2 cells
SARS-CoV-2 [4] = assay: microbe, parasite or virus in culture; conditions: Severe acute respiratory syndrome coronavirus 2, Caco-2, 48 h
SARS-CoV-2 [5] = conditions: caco-2
Caco-2 = conditions: human, caco-2, 48 h

Compound | inhibition (SARS-CoV-2 [1]) | selectivity ratio (in vitro [2]; Caco-2 cells) | CC50 at 48 h (in vitro [3]) | IC50 (SARS-CoV-2 [4]) | further results
GADOTERIDOL | 2.66% | – | – | – | –
C=C(c1ccccc1OCc1cccc(Cl)c1)n1ccnc1 [CROCONAZOLE] | – | 2 | 33 µM | 18.9 µM | –
ACRIFLAVINE HYDROCHLORIDE | 69.4% | – | – | – | –
NYSTATIN | -4.11% | – | – | – | –
CCC(CC)COC(=O)[C@H](C)N[P@](=O)(OC[C@H]1O[C@@](C#N)(c2ccc3c(N)ncnn23)[C@H](O)[C@@H]1O)Oc1ccccc1 | – | – | 2580 µM | 0.76 µM | selectivity ratio (in vitro [2]; caco-2): 3400
AURANOFIN | 12.8% | – | – | – | –
Cc1nn(C)c2nc(NNC(=O)Nc3cc(Cl)nc(Cl)c3)cc(C(C)C)c12 | – | 3 | 16.4 µM | 5.97 µM | –
CCOC(=O)c1ncc2[nH]c3ccc(OCc4ccccc4)cc3c2c1COC | – | 1 | 0.91 µM | 1.34 µM | –
CCCCCCCCCCCCOCCOCCOCCOCCOCCOCCOCCOCCOCCO | – | – | 10.3 µM | 0.22 µM | –
N=C(Nc1ccc(I)cc1)NC1C2CC3CC(C2)CC1C3 (stereo unspecified) | – | 2 | 11.5 µM | 5.96 µM | –
CC(C)(C)c1ccc(/C=C/C(=O)Nc2ccc3c(c2)OCCO3)cc1 | – | 1 | 14.2 µM | 15 µM | –
CC1=C(CCC(=O)O)c2cc3nc(cc4[nH]c(cc5[nH]c(cc1n2)c(C)c5C(C)O)c(C)c4C(C)O)C(C)=C3CCC(=O)O (stereo unspecified) [HAEMAPORPHYRIN] | – | – | 160 µM | – | –
CETRIMONIUM BROMIDE | 55.1% | – | – | – | –
TOCOFERSOLAN | 95.2% | – | – | – | –
PHENYLMERCURIC ACETATE | 9.11% | – | – | – | –
Cc1cc(Nc2cc(N3CCN(C)CC3)nc(Sc3ccc(NC(=O)C4CC4)cc3)n2)n[nH]1 | -0.85% | – | – | – | –
AUROTHIOGLUCOSE | 2.42% | – | – | – | –
FC(F)(F)Oc1ccc2nc(-c3ccc(OCCOCCOc4ccc(-c5nc6ccc(OC(F)(F)F)cc6[nH]5)nc4)cn3)[nH]c2c1 | – | 35 | 6.58 µM | 0.19 µM | –

Compound | inhibition (SARS-CoV-2 [1]) | selectivity ratio (in vitro [2]; Caco-2 cells) | CC50 at 48 h (in vitro [3]) | IC50 (SARS-CoV-2 [4]) | further results
C/C(=N\NC(=S)N1CCC1)c1ccccn1 | – | 1 | < 0.02 µM | < 0.02 µM | –
CCS(=O)(=O)N(Cc1cccnc1)c1cccc(-c2ccc(C#N)cc2)c1 | – | 1 | 13.4 µM | 17.1 µM | –
CYANOCOBALAMIN | 40.4% | – | – | – | –
SODIUM ORTHOVANADATE | 1.6% | – | – | – | –
Nc1nccc(-c2c(-c3ccc(F)cc3)ncn2C2CCCCC2)n1 | – | – | 8.24 µM | 19.2 µM | –
Nc1nc2c(ncn2[C@@H]2O[C@H](CO)[C@@H](O)[C@H]2O)c(=S)[nH]1 [THIOGUANOSINE] | – | 1 | 0.63 µM | 0.78 µM | –
VITAMIN B12 | -8.31% | – | – | – | –
C/C=C/C[C@@H](C)[C@@H](O)[C@H]1C(=O)N[C@@H](CC)C(=O)N(C)[C@H](C)C(=O)N(CC)[C@@H](C(C)C)C(=O)N[C@@H](C(C)C)C(=O)N(C)[C@@H](CC(C)C)C(=O)N[C@@H](C)C(=O)N[C@H](C)C(=O)N(C)[C@@H](CC(C)C)C(=O)N(C)[C@@H](CC(C)C)C(=O)N(C)[C@@H](C(C)C)C(=O)N1C [ALISPORIVIR] | – | > 6 | > 20 µM | 3.1 µM | –
THIMEROSAL | – | – | – | – | IC50 (SARS-CoV-2 [5]): 1.69 µM; CC50 (Caco-2): 13.5 µM
CC(=O)OC[C@]12CCC(C)=C[C@H]1O[C@@H]1[C@H](O)[C@@H](OC(C)=O)[C@@]2(C)[C@@]12CO2 | 35% | – | – | – | –
ESCIN | -9.26% | – | – | – | –
COC(=O)C[C@@](O)(CCC(C)(C)O)C(=O)O[C@@H]1C(OC)=C[C@]23CCCN2CCc2cc4c(cc2[C@@H]13)OCO4 | – | – | 0.07 µM | 19 µM | –
CCCCCCCCCCCCCCCCCC[S+](CCC)c1ccccc1C(=O)OCC (stereo unspecified) | – | 1 | 0.89 µM | 0.77 µM | –
Cc1cccc2c1CC[C@H](CN1CCC(c3c(Cl)cccc3Cl)CC1)C[C@@H]2O | – | 5 | 3.67 µM | 0.77 µM | –
Cn1cc(-c2ccc3c(c2)CCN3C(=O)Cc2cccc(C(F)(F)F)c2)c2c(N)ncnc21 | – | > 100 | 70.4 µM | 0.25 µM | –
COc1cc2ncc(-c3ccccc3)nc2cc1OC | – | – | 1.36 µM | 0.2 µM | –
COLISTIMETHATE SODIUM | -7.44% | – | – | – | –
CCCC[C@@]1(C2CCCC2)Cc2cc(OCCCC(=O)O)c(Cl)c(Cl)c2C1=O | – | 2 | 24.6 µM | 12.8 µM | –
